Assay results taken from patent US20240083910A1, “AMIDO-SUBSTITUTED PYRIDYL COMPOUNDS AND METHODS OF USE THEREOF FOR THE TREATMENT OF HERPESVIRUSES” (Merck Sharp & Dohme LLC, priority 2020, published 2024).
Read-outs that look alike come from different tables or passages of the source.

Experiments:
[1] = target: T1, Human cytomegalovirus DNA polymerase (Human cytomegalovirus, UniProt P08546); experiment: CMV polymerase assay (AlphaLISA); assay type: biochemical; settings: HCMV polymerase 0.2 nM; 30 min pre-incubation; 60 min at 37° C.; read-out: CMV (IC50)
T1 construct: made in house; host or cells: SF21 insect cells (baculovirus vector)
Method in brief: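 Baculovirus-expressed polymerase (HCMV 0.2 nM, VZV 0.4 nM) preincubated 30 min with compound, then reacted 60 min at 37 °C with 1.6 nM DIG-primer/59-mer template and low-nM dNTPs including 0.8 nM biotin-dUTP. Incorporation detected by AlphaLISA; IC50 from a 4-parameter fit normalized to DMSO and pre-quenched controls.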

[2] = target: T2, varicella zoster virus DNA polymerase (Varicella-zoster virus, UniProt P09252); experiment: VZV polymerase assay (AlphaLISA); assay type: biochemical; settings: VZV polymerase 0.4 nM; 30 min pre-incubation; 60 min at 37° C.
T2 construct: made in house; host or cells: SF21 insect cells (baculovirus vector)
Description: Human cytomegalovirus and varicella zoster virus DNA polymerases were expressed via baculovirus vector in SF21 cells and purified. Heterodimeric nucleic acid substrate used in the herpesvirus polymerase reactions was generated by annealing a 59-mer template to a 17-mer digoxigenin-labeled primer. Polymerase (HCMV final concentration of 0.2 nM; VZV final concentration of 0.4 nM) was combined with an inhibitor compound or DMSO in assay buffer (10 mM HEPES, pH 7.5, 25 mM KCl, 25 mM NaCl, 5 mM MgCl2, 5% glycerol, 0.67 mg/ml bovine serum albumin, and 1 mM tris(2-carboxyethyl)phosphine), and this mixture was pre-incubated for 30 minutes at room temperature in 384-well microtiter plates. The polymerization reaction was initiated by the addition of template/primer substrate (final concentration: 1.6 nM), and dNTPs (final concentration: 24 nM dCTP, 24 nMdGTP, 16 nM dATP, 16 nM dTTP, and 0.8 nM biotin-dUTP). After 60 min incubation at 37° C., reactions were terminated with quench buffer (25 mM HEPES pH 7.5, 100 mM NaCl, 0.25% Tween-20, 12 mM EDTA, and 1 mg/ml bovine serum albumin). Incorporation of biotinylated UTP was detected with 2.5-5 ug/ml anti-DIG AlphaLISA acceptor beads and 5-10 ug/ml streptavidin AlphaLISA donor beads (PerkinElmer). Compound effects were normalized to the window defined by the controls (DMSO only and pre-quenched wells) and were fit using a 4-parameter algorithm to report an IC50.

[3] = tested on: HCMV Strain AD169; experiment: Viral qPCR assay, HCMV; assay type: cell-based, Human cytomegalovirus; settings: MRC-5 cells, 0.05-0.1 pfu/cell, growth media or 50% fetal bovine serum, viral genome copies by qPCR, read-out: CMV Cell (EC50)
Method in brief: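 HCMV AD169 at 0.05-0.1 pfu/cell infected MRC-5 cells, added to 10-point 3-fold compound dilutions, in growth medium or medium with 50% FBS; ~72 h at 37°C. Viral genome copies by TaqMan qPCR against plasmid standard curve, normalized to DMSO and uninfected controls; EC50 from 4-parameter fit.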

[4] = tested on: VZV; experiment: Viral qPCR assay, VZV; assay type: cell-based, varicella zoster virus; settings: MeWo or MRC5 cells, 0.04-0.1 pfu/cell, growth medium, viral genome copies by qPCR
Method in brief: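 VZV strain Street at 0.04-0.1 pfu/cell infected MeWo or MRC5 cells added to 10-point, 3-fold compound dilutions; ~72 h at 37° C. Viral genome copies by TaqMan qPCR against plasmid standard curve, sometimes normalised to PPIA, scaled between uninfected and DMSO-infected controls; EC50 from 4-parameter fit.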

[5] = tested on: HSV-1 Strain F; experiment: Viral qPCR assay, HSV-1; assay type: cell-based, Herpes Simplex Virus type 1; settings: Vero or MRC5 cells, 0.0005-0.004 pfu/cell, growth medium, viral genome copies by qPCR, read-out: HSV1 Cell (EC50)
Method in brief: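 HSV-1 strain F at 0.0005–0.004 pfu/cell infected Vero or MRC5 cells, which were added to a 10-point 3-fold compound dilution and cultured ~72 h at 37 °C. Viral genomes in the lysates were quantified by TaqMan qPCR against a plasmid standard curve, in some runs normalized to cellular PPIA. EC50 came from a 4-parameter fit of % effect.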

[6] = Human betaherpesvirus 5, AD169, MRC5, 72 h

T1 sequence (P08546 whole entry): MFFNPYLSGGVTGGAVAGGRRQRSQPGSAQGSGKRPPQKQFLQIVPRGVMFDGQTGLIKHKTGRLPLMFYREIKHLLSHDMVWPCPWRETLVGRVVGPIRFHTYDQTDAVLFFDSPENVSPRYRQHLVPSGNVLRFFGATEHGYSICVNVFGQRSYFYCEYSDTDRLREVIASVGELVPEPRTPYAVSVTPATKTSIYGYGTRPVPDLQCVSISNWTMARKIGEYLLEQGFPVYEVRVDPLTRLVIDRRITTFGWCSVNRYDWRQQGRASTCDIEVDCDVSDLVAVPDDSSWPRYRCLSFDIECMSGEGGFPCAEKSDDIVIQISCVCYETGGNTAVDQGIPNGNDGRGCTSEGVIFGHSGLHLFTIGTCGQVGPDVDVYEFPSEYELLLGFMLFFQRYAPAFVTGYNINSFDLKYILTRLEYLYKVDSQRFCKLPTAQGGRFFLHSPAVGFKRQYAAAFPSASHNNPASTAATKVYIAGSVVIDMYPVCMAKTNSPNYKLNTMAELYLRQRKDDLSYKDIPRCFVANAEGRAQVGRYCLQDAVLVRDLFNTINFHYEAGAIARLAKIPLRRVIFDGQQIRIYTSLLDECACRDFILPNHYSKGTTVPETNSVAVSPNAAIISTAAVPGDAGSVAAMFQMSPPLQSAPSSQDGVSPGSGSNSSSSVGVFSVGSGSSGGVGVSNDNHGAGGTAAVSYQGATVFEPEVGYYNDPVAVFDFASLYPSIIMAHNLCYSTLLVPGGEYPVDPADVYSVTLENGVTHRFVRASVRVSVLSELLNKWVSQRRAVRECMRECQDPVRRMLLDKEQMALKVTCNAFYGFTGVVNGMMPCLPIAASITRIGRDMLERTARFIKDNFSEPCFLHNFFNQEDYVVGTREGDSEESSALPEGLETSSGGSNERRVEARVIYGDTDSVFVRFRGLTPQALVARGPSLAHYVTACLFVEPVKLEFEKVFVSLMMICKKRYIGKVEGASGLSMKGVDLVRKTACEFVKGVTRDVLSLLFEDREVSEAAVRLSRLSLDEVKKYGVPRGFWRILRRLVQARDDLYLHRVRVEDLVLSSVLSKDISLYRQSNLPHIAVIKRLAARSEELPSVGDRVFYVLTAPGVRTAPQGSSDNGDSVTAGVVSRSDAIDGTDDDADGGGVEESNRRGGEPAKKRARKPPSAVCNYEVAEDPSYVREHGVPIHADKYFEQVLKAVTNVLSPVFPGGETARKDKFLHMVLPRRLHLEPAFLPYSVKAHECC
T2 sequence (P09252 whole entry): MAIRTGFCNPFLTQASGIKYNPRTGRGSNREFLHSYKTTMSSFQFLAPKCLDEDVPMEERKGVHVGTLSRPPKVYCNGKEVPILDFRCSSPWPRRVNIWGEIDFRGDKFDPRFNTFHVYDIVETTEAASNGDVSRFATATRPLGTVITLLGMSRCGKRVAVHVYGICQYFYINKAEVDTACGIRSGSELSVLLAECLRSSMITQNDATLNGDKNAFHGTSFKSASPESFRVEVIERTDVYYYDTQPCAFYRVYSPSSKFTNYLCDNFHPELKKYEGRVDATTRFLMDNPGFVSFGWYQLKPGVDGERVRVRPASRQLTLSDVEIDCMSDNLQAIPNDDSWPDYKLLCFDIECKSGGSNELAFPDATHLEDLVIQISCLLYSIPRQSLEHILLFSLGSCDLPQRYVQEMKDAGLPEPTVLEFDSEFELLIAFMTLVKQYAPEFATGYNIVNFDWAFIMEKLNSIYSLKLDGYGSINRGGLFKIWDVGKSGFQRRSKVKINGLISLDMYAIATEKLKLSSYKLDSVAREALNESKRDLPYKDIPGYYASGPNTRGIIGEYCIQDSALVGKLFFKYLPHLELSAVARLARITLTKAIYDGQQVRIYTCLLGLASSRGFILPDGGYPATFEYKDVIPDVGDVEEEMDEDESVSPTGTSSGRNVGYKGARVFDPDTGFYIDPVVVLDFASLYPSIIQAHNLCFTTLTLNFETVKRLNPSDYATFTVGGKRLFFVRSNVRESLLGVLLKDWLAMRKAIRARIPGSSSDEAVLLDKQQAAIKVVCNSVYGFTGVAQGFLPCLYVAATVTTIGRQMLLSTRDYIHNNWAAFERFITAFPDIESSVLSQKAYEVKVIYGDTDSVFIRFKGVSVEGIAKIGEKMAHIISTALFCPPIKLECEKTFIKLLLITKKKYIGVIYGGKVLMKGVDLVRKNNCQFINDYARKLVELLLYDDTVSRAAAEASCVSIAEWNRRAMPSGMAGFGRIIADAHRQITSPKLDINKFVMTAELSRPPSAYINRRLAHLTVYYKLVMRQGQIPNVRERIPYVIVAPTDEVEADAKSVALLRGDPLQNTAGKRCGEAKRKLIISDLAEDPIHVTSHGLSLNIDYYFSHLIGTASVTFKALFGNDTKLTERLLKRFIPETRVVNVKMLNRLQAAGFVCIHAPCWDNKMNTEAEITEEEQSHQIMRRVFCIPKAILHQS

SMILES	IC50 [1] [nM]	IC50 [2] [nM]	EC50 [3, 6] [nM]	EC50 ([4]; Human alphaherpesvirus 3, 72 h) [nM]	EC50 ([5]; Human alphaherpesvirus 1, 72 h) [nM]	EC50 ([3]; ~72 hrs) [nM]	EC50 ([4]; ~72 hrs) [nM]	EC50 ([5]; ~72 hrs) [nM]
COc1nc(N2CCC(C(C)(C)N)C2)c(O[C@H]2CCN3C(=O)OC[C@@H]3C2)cc1C(=O)NCc1ccc(Cl)cc1 (single isomer, unassigned) [Compound 71]	22.8	3.54	221	468	396	–	–	–
COc1nc(N2CCC(C(C)(C)N)C2)c(O[C@H]2CCN3C(=O)OC[C@@H]3C2)cc1C(=O)NCc1ccc(Cl)cc1 (single isomer, unassigned) [Compound 72]	45.5	12.4	–	–	–	276	665	559
COc1nc(-c2cnn(C(F)F)c2)c(O[C@H]2CCN3C(=O)OC[C@@H]3C2)cc1C(=O)NCc1ccc(Cl)cc1 [Compound 4]	7.52	0.715	146	141	105	–	–	–
COc1nc(-c2cnc(C)o2)c(O[C@H]2CCN3C(=O)OC[C@@H]3C2)cc1C(=O)NCc1ccc(Cl)cc1 [Compound 5]	4.11	0.161	71.4	107	80.1	–	–	–
COc1nc(-c2cnco2)c(O[C@H]2CCN3C(=O)OC[C@@H]3C2)cc1C(=O)NCc1ccc(Cl)cc1 [Compound 6]	1.05	0.0674	77	110	87.5	–	–	–
COc1nc(-c2cc(C)ns2)c(O[C@H]2CCN3C(=O)OC[C@@H]3C2)cc1C(=O)NCc1ccc(Cl)cc1 [Compound 7]	1.32	0.223	82.6	129	72.6	–	–	–
COc1nc(C)c(O[C@H]2CCN3C(=O)OC[C@@H]3C2)cc1C(=O)NCc1ccc(Cl)cc1 [Compound 8]	37.9	15	415	841	866	–	–	–
COc1nc(-c2cc(C)no2)c(O[C@H]2CCN3C(=O)OC[C@@H]3C2)cc1C(=O)NCc1ccc(Cl)cc1 [Compound 9]	4.87	1.71	111	98.4	85.7	–	–	–
COc1nc(-c2cnc(C3CC3)o2)c(O[C@H]2CCN3C(=O)OC[C@@H]3C2)cc1C(=O)NCc1ccc(Cl)cc1 [Compound 10]	11.3	0.508	134	131	150	–	–	–
COc1nc(-c2cnn(Cc3ccccn3)c2)c(O[C@H]2CCN3C(=O)OC[C@@H]3C2)cc1C(=O)NCc1ccc(Cl)cc1 [Compound 15]	12	12.9	144	355	233	–	–	–
COc1nc(-c2cncs2)c(O[C@H]2CCN3C(=O)OC[C@@H]3C2)cc1C(=O)NCc1ccc(Cl)cc1 [Compound 16]	2.07	0.63	137	–	–	–	–	–
O=C(NCc1ccc(Cl)cc1)c1cc(O[C@H]2CCN3C(=O)OC[C@@H]3C2)c(-c2cnn(C(F)F)c2)nc1OCC1CC1(F)F (some centres unmarked) [Compound 91]	18.5	–	271	569	346	–	–	–
CC(C)(C#N)COc1nc(-c2cnn(C(F)F)c2)c(O[C@H]2CCN3C(=O)OC[C@@H]3C2)cc1C(=O)NCc1ccc(Cl)cc1 [Compound 92]	7.31	–	137	417	229	–	–	–
CC(O)COc1nc(-c2cnn(C(F)F)c2)c(O[C@H]2CCN3C(=O)OC[C@@H]3C2)cc1C(=O)NCc1ccc(Cl)cc1 (some centres unmarked) [Compound 93]	4.62	–	204	250	59.1	–	–	–
CN1C(=O)NC[C@@H]1COc1nc(-c2cnn(C(F)F)c2)c(O[C@H]2CCN3C(=O)OC[C@@H]3C2)cc1C(=O)NCc1ccc(Cl)cc1 [Compound 94]	5.15	–	520	2180	773	–	–	–
CN(C)CCCOc1nc(-c2cnn(C(F)F)c2)c(O[C@H]2CCN3C(=O)OC[C@@H]3C2)cc1C(=O)NCc1ccc(Cl)cc1 [Compound 95]	1.46	–	151	463	141	–	–	–
CCN(CC)CCOc1nc(-c2cnn(C(F)F)c2)c(O[C@H]2CCN3C(=O)OC[C@@H]3C2)cc1C(=O)NCc1ccc(Cl)cc1 [Compound 96]	2.72	–	75.9	400	148	–	–	–
CN1CCN(CCCOc2nc(-c3cnn(C(F)F)c3)c(O[C@H]3CCN4C(=O)OC[C@@H]4C3)cc2C(=O)NCc2ccc(Cl)cc2)CC1 [Compound 98]	14.1	–	115	617	290	–	–	–
O=C1CC[C@@H](COc2nc(-c3cnn(C(F)F)c3)c(O[C@H]3CCN4C(=O)OC[C@@H]4C3)cc2C(=O)NCc2ccc(Cl)cc2)N1 [Compound 99]	4.67	–	282	1310	493	–	–	–
NC(=O)CCOc1nc(-c2cnn(C(F)F)c2)c(O[C@H]2CCN3C(=O)OC[C@@H]3C2)cc1C(=O)NCc1ccc(Cl)cc1 [Compound 100]	3.17	–	47.4	451	213	–	–	–
CCOc1nc(-c2cnn(C(F)F)c2)c(O[C@H]2CCN3C(=O)OC[C@@H]3C2)cc1C(=O)NCc1ccc(Cl)cc1 [Compound 101]	42.6	–	524	578	320	–	–	–
COc1nc(-c2cnn(C(F)F)c2)c(O[C@@H]2CCN(C(C)=O)[C@H](C)C2)cc1C(=O)NCc1ccc(Cl)cc1 [Compound 102]	14.5	–	344	887	601	–	–	–
COc1ncc(O[C@H]2CCN3C(=O)OC[C@@H]3C2)cc1C(=O)NCc1ccc(Cl)cc1 [Compound 103]	249	110	4690	5500	–	–	–	–
